The text below walks through data of US11091496B2, “Opioid ketal compounds and uses thereof” (priority 2013, dated 2021).

Series [1] is classed as physicochemical. The note with it: mixture of isomers; 0.1 N HCl 37° C.
The nature of series [2]: Hydrolysis in Coca Cola, pH 4 buffer or pH 7 buffer, 3 days. The class given is physicochemical. The following applies: 1 mg/ml; for Hydrolysis to Oxycodone: after 3 days.
Series [3] can be described thus: Hydrolysis in fresh EDTA stabilized blood plasma at 37° C. The note with it: mixture of isomers, 1.1 mg, four hour period.
For series [4] the following is noted: 5% acetic acid 100° C.

SMILES strings stand for the structures.

For the compound `COc1ccc2c3c1O[C@H]1C4(CCC5(O)[C@@H](C2)N(C)CC[C@]315)OC(C)CC(C)O4` (stereo partly drawn) [Formula IV, oxycodone 2,4-pentanediol ketal], the “time at which about 50% of the oxycodone is released” value in series [1] is “about 2.9 hours”. The “time by which about (almost) 90% oxycodone release occurs” value in series [1] was not above 25 h. In addition, the “degree of hydrolysis after 3 days” value in series [2] (Coca Cola, pH 4 buffer, pH 7 buffer) is recorded as “very low degree of hydrolysis”. Besides, the “Hydrolysis to Oxycodone” value is given as 5% in series [2] (Coca Cola, 23° C.); 4% in series [2] (pH 4 Buffer, 37° C.); 0% in series [2] (pH 7 Buffer, 37° C.). In addition, in series [3], the “ketal hydrolyzed to parent opioid in blood plasma” value was “approximately 6%”. In addition, the “time to about 80% hydrolysis to oxycodone” value in series [4] (FIG. 12) was “about 2 hours”. Besides, the “time to almost completely hydrolyze to oxycodone” value in series [4] (FIG. 12, FIG. 13) is “about 10 hours”.
